According to patent US20260207623A1, “USE OF ESTETROL IN HEPATICALLY IMPAIRED PATIENTS” (ESTETRA SRL, priority 2022, published 2026):

Tested on: female subjects with normal hepatic function, mild, moderate or severe hepatic impairment
Test: Safety and tolerability (TEAEs, clinical laboratory, vital signs, physical examination) after a single oral dose of 20 mg E4 monohydrate in the hepatic impairment study
Format: in vivo, human
Details: for TEAE by severity: Vascular disorders, severity Mild / TEAE: Back pain / TEAE: Diarrhea / TEAE: Gastrointestinal disorders / TEAE: General disorders and administration site conditions / TEAE: Haemarthrosis / TEAE: Headache / TEAE: Hypertension / TEAE: Musculoskeletal and connective tissue disorders / TEAE: Nervous system disorders / TEAE: Pain in extremity / TEAE: Pancreatitis / TEAE: Pyrexia / TEAE: Renal and urinary disorders / TEAE: Renal impairment / TEAE: Total Subjects with at Least One TEAE / TEAE: Vascular disorders / TEAE by severity: Back pain, severity Mild / TEAE by severity: Back pain, severity Moderate / TEAE by severity: Diarrhea, severity Mild / TEAE by severity: Diarrhea, severity Moderate / TEAE by severity: Gastrointestinal disorders, severity Mild / TEAE by severity: Gastrointestinal disorders, severity Moderate / TEAE by severity: General disorders and administration site conditions, severity Mild / TEAE by severity: Haemarthrosis, severity Mild / TEAE by severity: Headache, severity Mild / TEAE by severity: Headache, severity Moderate / TEAE by severity: Hypertension, severity Mild / TEAE by severity: Musculoskeletal and connective tissue disorders, severity Mild / TEAE by severity: Musculoskeletal and connective tissue disorders, severity Moderate / TEAE by severity: Nervous system disorders, severity Mild / TEAE by severity: Nervous system disorders, severity Moderate / TEAE by severity: Pain in extremity, severity Mild / TEAE by severity: Pancreatitis, severity Moderate / TEAE by severity: Pyrexia, severity Mild / TEAE by severity: Renal and urinary disorders, severity Mild / TEAE by severity: Renal impairment, severity Mild: single oral 20 mg
Procedure: This was a Phase 1, multi-centre, open-label, PK, and safety study of a single oral dose of 20 mg E4 monohydrate in female subjects with normal hepatic function (Group 1), mild hepatic impairment (Group 2), moderate hepatic impairment (Group 3), and severe hepatic impairment (Group 4), as defined using the Child-Pugh classification at Screening.
Safety and tolerability assessments consisted of treatment-emergent AEs (TEAEs), clinical laboratory, vital signs, physical examination, and gynecological examination. Assessments were performed in accordance with Table 2 and Table 3 in Section 2.5.1.
AEs/TEAEs were recorded after signing of the ICF until completion of the follow up visit. Any clinically significant observations in results of clinical laboratory, vital signs, or physical examinations were recorded as AEs.
A TEAE is defined as any event not present prior to administration of the study drug or any event already present that worsens in either severity or frequency following exposure to the study drug.
The below listed tests were to be performed by the local laboratories at time points indicated in the Schedule of Assessments (Table 2).
Systolic and diastolic blood pressure and pulse were recorded after the subject had been resting for at least 5 minutes in the supine position at time points indicated in the Schedule of Assessments (Table 2). These assessments were made using an automated device. Body temperature and respiratory rate were measured subsequently.
A complete physical examination consisting of a review of all body systems was performed at time points indicated in the Schedule of Assessments (Table 2). A symptom-directed physical examination could be conducted at any time per Investigator's discretion.
2.6.2.2 Evaluation of Safety and Tolerability Safety and tolerability were assessed through TEAEs, clinical laboratory, vital signs, and physical examination findings, and any other parameter that was relevant for safety assessment.
A listing of all individual AEs is provided. Summary tables of TEAEs are presented by system organ class (SOC) based on the MedDRA terminology list (preferred terms): a table containing the number of subjects experiencing AEs by hepatic function, a table containing the number of subjects experiencing SAEs by hepatic function (if applicable), a table by hepatic function and relationship, and a table by hepatic function and severity.

[1] = Normal hepatic function (N = 8)
[2] = Severe hepatic impairment (N = 8)

Compound: C[C@]12CC[C@@H]3c4ccc(O)cc4CC[C@H]3[C@@H]1[C@@H](O)[C@@H](O)[C@@H]2O [E4 monohydrate, estetrol monohydrate]
- TEAE by severity: Vascular disorders, severity Mild [1]: 0 (0.0) n (%)
- TEAE: Back pain [1]: 1 (12.5) n (%)
- TEAE: Diarrhea [1]: 1 (12.5) n (%)
- TEAE: Gastrointestinal disorders [1]: 2 (25.0) n (%)
- TEAE: General disorders and administration site conditions [1]: 0 (0.0) n (%)
- TEAE: Haemarthrosis [1]: 0 (0.0) n (%)
- TEAE: Headache [1]: 0 (0.0) n (%)
- TEAE: Hypertension [1]: 0 (0.0) n (%)
- TEAE: Musculoskeletal and connective tissue disorders [1]: 1 (12.5) n (%)
- TEAE: Nervous system disorders [1]: 0 (0.0) n (%)
- TEAE: Pain in extremity [1]: 0 (0.0) n (%)
- TEAE: Pancreatitis [1]: 1 (12.5) n (%)
- TEAE: Pyrexia [1]: 0 (0.0) n (%)
- TEAE: Renal and urinary disorders [1]: 0 (0.0) n (%)
- TEAE: Renal impairment [1]: 0 (0.0) n (%)
- TEAE: Total Subjects with at Least One TEAE [1]: 2 (25.0) n (%)
- TEAE: Vascular disorders [1]: 0 (0.0) n (%)
- TEAE by severity: Back pain, severity Mild [2]: 1 (12.5) n (%)
- TEAE by severity: Back pain, severity Moderate [2]: 0 (0.0) n (%)
- TEAE by severity: Diarrhea, severity Mild [2]: 0 (0.0) n (%)
- TEAE by severity: Diarrhea, severity Moderate [2]: 0 (0.0) n (%)
- TEAE by severity: Gastrointestinal disorders, severity Mild [2]: 0 (0.0) n (%)
- TEAE by severity: Gastrointestinal disorders, severity Moderate [2]: 0 (0.0) n (%)
- TEAE by severity: General disorders and administration site conditions, severity Mild [2]: 0 (0.0) n (%)
- TEAE by severity: Haemarthrosis, severity Mild [2]: 0 (0.0) n (%)
- TEAE by severity: Headache, severity Mild [2]: 0 (0.0) n (%)
- TEAE by severity: Headache, severity Moderate [2]: 0 (0.0) n (%)
- TEAE by severity: Hypertension, severity Mild [2]: 0 (0.0) n (%)
- TEAE by severity: Musculoskeletal and connective tissue disorders, severity Mild [2]: 1 (12.5) n (%)
- TEAE by severity: Musculoskeletal and connective tissue disorders, severity Moderate [2]: 0 (0.0) n (%)
- TEAE by severity: Nervous system disorders, severity Mild [2]: 0 (0.0) n (%)
- TEAE by severity: Nervous system disorders, severity Moderate [2]: 0 (0.0) n (%)
- TEAE by severity: Pain in extremity, severity Mild [2]: 0 (0.0) n (%)
- TEAE by severity: Pancreatitis, severity Moderate [2]: 0 (0.0) n (%)
- TEAE by severity: Pyrexia, severity Mild [2]: 0 (0.0) n (%)
- TEAE by severity: Renal and urinary disorders, severity Mild [2]: 1 (12.5) n (%)
- TEAE by severity: Renal impairment, severity Mild [2]: 1 (12.5) n (%)
- TEAE by severity: Vascular disorders, severity Mild [2]: 0 (0.0) n (%)
- TEAE: Back pain [2]: 1 (12.5) n (%)
- TEAE: Diarrhea [2]: 0 (0.0) n (%)
- TEAE: Gastrointestinal disorders [2]: 0 (0.0) n (%)
- TEAE: General disorders and administration site conditions [2]: 0 (0.0) n (%)
- TEAE: Haemarthrosis [2]: 0 (0.0) n (%)
- TEAE: Headache [2]: 0 (0.0) n (%)
- TEAE: Hypertension [2]: 0 (0.0) n (%)
- TEAE: Musculoskeletal and connective tissue disorders [2]: 1 (12.5) n (%)
- TEAE: Nervous system disorders [2]: 0 (0.0) n (%)
- TEAE: Pain in extremity [2]: 0 (0.0) n (%)
- TEAE: Pancreatitis [2]: 0 (0.0) n (%)
- TEAE: Pyrexia [2]: 0 (0.0) n (%)
- TEAE: Renal and urinary disorders [2]: 1 (12.5) n (%)
- TEAE: Renal impairment [2]: 1 (12.5) n (%)
- TEAE: Total Subjects with at Least One TEAE [2]: 1 (12.5) n (%)
- TEAE: Vascular disorders [2]: 0 (0.0) n (%)
- TEAE by severity: Back pain, severity Mild (Total (N = 32)): 1 (3.1) n (%)
- TEAE by severity: Back pain, severity Moderate (Total (N = 32)): 1 (3.1) n (%)
- TEAE by severity: Diarrhea, severity Mild (Total (N = 32)): 2 (6.3) n (%)
- TEAE by severity: Diarrhea, severity Moderate (Total (N = 32)): 1 (3.1) n (%)
- TEAE by severity: Gastrointestinal disorders, severity Mild (Total (N = 32)): 2 (6.3) n (%)
- TEAE by severity: Gastrointestinal disorders, severity Moderate (Total (N = 32)): 2 (6.3) n (%)
- TEAE by severity: General disorders and administration site conditions, severity Mild (Total (N = 32)): 1 (3.1) n (%)
- TEAE by severity: Haemarthrosis, severity Mild (Total (N = 32)): 1 (3.1) n (%)
- TEAE by severity: Headache, severity Mild (Total (N = 32)): 1 (3.1) n (%)
- TEAE by severity: Headache, severity Moderate (Total (N = 32)): 1 (3.1) n (%)
- TEAE by severity: Hypertension, severity Mild (Total (N = 32)): 2 (6.3) n (%)
- TEAE by severity: Musculoskeletal and connective tissue disorders, severity Mild (Total (N = 32)): 3 (9.4) n (%)
- TEAE by severity: Musculoskeletal and connective tissue disorders, severity Moderate (Total (N = 32)): 1 (3.1) n (%)
- TEAE by severity: Nervous system disorders, severity Mild (Total (N = 32)): 1 (3.1) n (%)
- TEAE by severity: Nervous system disorders, severity Moderate (Total (N = 32)): 1 (3.1) n (%)
- TEAE by severity: Pain in extremity, severity Mild (Total (N = 32)): 1 (3.1) n (%)
- TEAE by severity: Pancreatitis, severity Moderate (Total (N = 32)): 1 (3.1) n (%)
- TEAE by severity: Pyrexia, severity Mild (Total (N = 32)): 1 (3.1) n (%)
- TEAE by severity: Renal and urinary disorders, severity Mild (Total (N = 32)): 1 (3.1) n (%)
- TEAE by severity: Renal impairment, severity Mild (Total (N = 32)): 1 (3.1) n (%)
- TEAE by severity: Vascular disorders, severity Mild (Total (N = 32)): 2 (6.3) n (%)
- TEAE: Back pain (Total (N = 32)): 2 (6.3) n (%)
- TEAE: Diarrhea (Total (N = 32)): 3 (9.4) n (%)
- TEAE: Gastrointestinal disorders (Total (N = 32)): 4 (12.5) n (%)
- TEAE: General disorders and administration site conditions (Total (N = 32)): 1 (3.1) n (%)
- TEAE: Haemarthrosis (Total (N = 32)): 1 (3.1) n (%)
- TEAE: Headache (Total (N = 32)): 2 (6.3) n (%)
- TEAE: Hypertension (Total (N = 32)): 2 (6.3) n (%)
- TEAE: Musculoskeletal and connective tissue disorders (Total (N = 32)): 4 (12.5) n (%)
- TEAE: Nervous system disorders (Total (N = 32)): 2 (6.3) n (%)
- TEAE: Pain in extremity (Total (N = 32)): 1 (3.1) n (%)
- TEAE: Pancreatitis (Total (N = 32)): 1 (3.1) n (%)
- TEAE: Pyrexia (Total (N = 32)): 1 (3.1) n (%)
- TEAE: Renal and urinary disorders (Total (N = 32)): 1 (3.1) n (%)
- TEAE: Renal impairment (Total (N = 32)): 1 (3.1) n (%)
- TEAE: Total Subjects with at Least One TEAE (Total (N = 32)): 9 (28.1) n (%)
- TEAE: Vascular disorders (Total (N = 32)): 2 (6.3) n (%)
- number of TEAEs considered related to the study drug (diarrhea, mild intensity, 1 subject in the moderate group): 1 TEAE
- subjects reporting TEAE diarrhea (normal hepatic function group): 1 subjects
- overall safety and tolerability (single oral dose of 20 mg, normal hepatic function, mild, moderate or severe hepatic impairment): safe and well tolerated
- deaths, SAEs, other significant AEs (whole study, monohydrate): No deaths, SAEs, or other significant AEs occurred
